Reference: patent publication US20260258032A1, “TYROSINE KINASE 2 INHIBITORS AND USES THEREOF” (BIOGEN MA INC., priority 2022, published 2026)
Counter-ions that a name gives are not always drawn.

What was measured:
[1] = system: Tyk2 kinase activity on STAT4; experiment: pSTAT4 cell assay (MSD, NK92 cells); type: cell-based; details: compounds 1 hr, stimulated 15 minutes
In short: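 Cells natively expressing STAT4 and Tyk2 (NK92) are serum-starved to lower background phosphorylation, exposed to compound for 1 hr over a 10-point four-fold series starting at 10 μM, and stimulated with 30 ng/mL IL2 for 15 minutes. Phosphorylation is quantified on MSD with anti-STAT4 antibodies.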

[2] = molecular target: T1, JH2 domain of human Tyk2 (Homo sapiens, UniProt P29597); experiment: JH2 biochemical assay (TR-FRET probe displacement); type: binding; details: JH2 biochemical assay
T1 construct: 10×His-tagged TYK2 JH2 domain (amino acid 575-876)
T1 sequence (P29597 575-876): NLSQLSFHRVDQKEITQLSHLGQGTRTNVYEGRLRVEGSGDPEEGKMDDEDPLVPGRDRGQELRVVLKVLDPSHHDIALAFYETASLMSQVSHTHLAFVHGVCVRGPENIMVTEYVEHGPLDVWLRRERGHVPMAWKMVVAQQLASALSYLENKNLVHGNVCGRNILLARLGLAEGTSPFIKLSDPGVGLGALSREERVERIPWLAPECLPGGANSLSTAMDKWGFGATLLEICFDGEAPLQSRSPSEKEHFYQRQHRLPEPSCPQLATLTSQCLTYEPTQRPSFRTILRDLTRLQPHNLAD
In short: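 A probe-displacement TR-FRET readout: compounds, tested in 3-fold, 10-point dilutions starting at […], compete with 2 nM tracer for 2 nM His-tagged JH2 (residues 575-876) detected by 0.1 nM Tb-anti-His over 60 min. IC50 comes from 4-parameter fits of normalized 520/495 nm ratios.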

CC(=O)Nc1cc2c(cn1)C1(CC1)CN2c1cc(C)cc(N2CC3CCN(C)C3C2)n1 (stereo not shown) [Example 277, N-(1′-(4-methyl-6-(1-methylhexahydropyrrolo[3,4-b]pyrrol-5(1H)-yl)pyridin-2-yl)-1′,2′-dihydrospiro[cyclopropane-1,3′-pyrrolo[3,2-c]pyridin]-6′-yl)acetamide trifluoroacetate]
IC50 [1]: ≥ 1000 nM | IC50 [2]: 100 to 1000 nM

Cc1cc(N2CC3(CC3)c3cnc(NC(=O)N(C)C)cc32)nc(C(C)(F)F)n1 [Example 278, 3-(1′-(2-(1,1-difluoroethyl)-6-methylpyrimidin-4-yl)-1′,2′-dihydrospiro[cyclopropane-1,3′-pyrrolo[3,2-c]pyridin]-6′-yl)-1,1-dimethylurea]
IC50 [1]: ≥ 1000 nM | IC50 [2]: 100 to 1000 nM

CC(=O)Nc1cc2c(cn1)C1(CC1)CN2c1cc(C)cc(C2(F)CC2)n1 [Example 279, N-(1′-(6-(1-fluorocyclopropyl)-4-methylpyridin-2-yl)-1′,2′-dihydrospiro[cyclopropane-1,3′-pyrrolo[3,2-c]pyridin]-6′-yl)acetamide]
IC50 [1]: 100 to 1000 nM | IC50 [2]: 10 to 100 nM

CC(=O)Nc1cc2c(cn1)C1(CC1)CN2c1cc(C(C)(F)F)ncn1 [Example 280, N-(1′-(6-(1,1-difluoroethyl)pyrimidin-4-yl)-1′,2′-dihydrospiro[cyclopropane-1,3′-pyrrolo[3,2-c]pyridin]-6′-yl)acetamide]
IC50 [1]: ≥ 1000 nM | IC50 [2]: 100 to 1000 nM

CCOC(=O)C(F)(F)c1nc(C)cc(N2CC3(CC3)c3cnc(NC(C)=O)cc32)n1 [Example 281, Ethyl 2-(4-(6′-acetamidospiro[cyclopropane-1,3′-pyrrolo[3,2-c]pyridin]-1′(2′H)-yl)-6-methylpyrimidin-2-yl)-2,2-difluoroacetate]
IC50 [1]: ≥ 1000 nM | IC50 [2]: 100 to 1000 nM

CC(=O)Nc1cc2c(cn1)C1(CC1)CN2c1cc(C(C)(F)F)nc(Cl)n1 [Example 282, N-(1′-(2-chloro-6-(1,1-difluoroethyl)pyrimidin-4-yl)-1′,2′-dihydrospiro[cyclopropane-1,3′-pyrrolo[3,2-c]pyridin]-6′-yl)acetamide]
IC50 [1]: ≥ 1000 nM | IC50 [2]: 100 to 1000 nM

CC(=O)Nc1cc2c(cn1)C1(CC1)CN2c1cc(Cl)nc(C(C)(C)F)n1 [Example 283, N-(1′-(6-chloro-2-(2-fluoropropan-2-yl)pyrimidin-4-yl)-1′,2′-dihydrospiro[cyclopropane-1,3′-pyrrolo[3,2-c]pyridin]-6′-yl)acetamide]
IC50 [1]: 100 to 1000 nM | IC50 [2]: ≤ 10 nM

CC(=O)Nc1cc2c(cn1)C1(CC1)CN2c1cc(NC2CC2)nc(C(C)(F)F)n1 [Example 284, N-(1′-(6-(cyclopropylamino)-2-(1,1-difluoroethyl)pyrimidin-4-yl)-1′,2′-dihydrospiro[cyclopropane-1,3′-pyrrolo[3,2-c]pyridin]-6′-yl)acetamide trifluoroacetate]
IC50 [1]: 10 to 100 nM | IC50 [2]: ≤ 10 nM

CC(=O)Nc1cc2c(cn1)C1(CC1)CN2c1cc(NC2COC2)nc(C(C)(F)F)n1 [Example 285, N-(1′-(2-(1,1-difluoroethyl)-6-(oxetan-3-ylamino)pyrimidin-4-yl)-1′,2′-dihydrospiro[cyclopropane-1,3′-pyrrolo[3,2-c]pyridin]-6′-yl)acetamide]
IC50 [1]: 10 to 100 nM | IC50 [2]: ≤ 10 nM

CC(=O)Nc1cc2c(cn1)C1(CC1)CN2c1cc(C)nc(OCC(C)(C)O)n1 [Example 286, N-(1′-(2-(2-hydroxy-2-methylpropoxy)-6-methylpyrimidin-4-yl)-1′,2′-dihydrospiro[cyclopropane-1,3′-pyrrolo[3,2-c]pyridin]-6′-yl)acetamide]
IC50 [1]: 100 to 1000 nM | IC50 [2]: 10 to 100 nM

COCCOc1nc(N2CC3(CC3)c3cnc(NC(C)=O)cc32)cc(C(C)(F)F)n1 [Example 287, N-(1′-(6-(1,1-difluoroethyl)-2-(2-methoxyethoxy)pyrimidin-4-yl)-1′,2′-dihydrospiro[cyclopropane-1,3′-pyrrolo[3,2-c]pyridin]-6′-yl)acetamide]
IC50 [1]: 100 to 1000 nM | IC50 [2]: ≤ 10 nM

CC(=O)Nc1cc2c(cn1)C1(CC1)CN2c1cc(C)nc(OCCF)n1 [Example 288, N-(1′-(2-(2-fluoroethoxy)-6-methylpyrimidin-4-yl)-1′,2′-dihydrospiro[cyclopropane-1,3′-pyrrolo[3,2-c]pyridin]-6′-yl)acetamide]
IC50 [1]: 100 to 1000 nM | IC50 [2]: ≤ 10 nM

CC(=O)Nc1cc2c(cn1)C1(CC1)CN2c1cc(C)nc(C(F)(F)CO)n1 [Example 289, N-(1′-(2-(1,1-difluoro-2-hydroxyethyl)-6-methylpyrimidin-4-yl)-1′,2′-dihydrospiro[cyclopropane-1,3′-pyrrolo[3,2-c]pyridin]-6′-yl)acetamide]
IC50 [1]: 10 to 100 nM | IC50 [2]: ≤ 10 nM

CC(=O)Nc1cc2c(cn1)C1(CC1)CN2c1cc(C)cc(C(F)(F)CO)n1 [Example 290, N-(1′-(6-(1,1-difluoro-2-hydroxyethyl)-4-methylpyridin-2-yl)-1′,2′-dihydrospiro[cyclopropane-1,3′-pyrrolo[3,2-c]pyridin]-6′-yl)acetamide]
IC50 [1]: 10 to 100 nM | IC50 [2]: ≤ 10 nM

CCOC(=O)c1cc(N2CC3(CC3)c3cnc(NC(C)=O)cc32)nc(C(C)(F)F)n1 [Example 291, Ethyl 6-(6′-acetamidospiro[cyclopropane-1,3′-pyrrolo[3,2-c]pyridin]-1′(2′H)-yl)-2-(1,1-difluoroethyl)pyrimidine-4-carboxylate]
IC50 [1]: 100 to 1000 nM | IC50 [2]: ≤ 10 nM

CC(=O)Nc1cc2c(cn1)C1(CC1)CN2c1cc(C(C)O)nc(C(C)(F)F)n1 (stereo not shown) [Example 293, N-(1′-(2-(1,1-difluoroethyl)-6-(1-hydroxyethyl)pyrimidin-4-yl)-1′,2′-dihydrospiro[cyclopropane-1,3′-pyrrolo[3,2-c]pyridin]-6′-yl)acetamide]
IC50 [1]: 100 to 1000 nM | IC50 [2]: ≤ 10 nM

CC(=O)Nc1cc2c(cn1)C1(CC1)CN2c1cc(C(=O)O)nc(C(C)(F)F)n1 [Example 294, 6-(6′-acetamidospiro[cyclopropane-1,3′-pyrrolo[3,2-c]pyridin]-1′(2′H)-yl)-2-(1,1-difluoroethyl)pyrimidine-4-carboxylic acid]
IC50 [1]: ≥ 1000 nM | IC50 [2]: 10 to 100 nM

CC(=O)Nc1cc2c(cn1)C1(CC1)CN2c1cc(C2=COCC2)nc(C(C)(F)F)n1 [Example 296, N-(1′-(2-(1,1-difluoroethyl)-6-(4,5-dihydrofuran-3-yl)pyrimidin-4-yl)-1′,2′-dihydrospiro[cyclopropane-1,3′-pyrrolo[3,2-c]pyridin]-6′-yl)acetamide trifluoroacetate]
IC50 [1]: 100 to 1000 nM | IC50 [2]: ≤ 10 nM

CC(=O)Nc1cc2c(cn1)C1(CC1)CN2c1cc(C2CCOC2)nc(C(C)(F)F)n1 (stereo not shown) [Example 297, N-(1′-(2-(1,1-difluoroethyl)-6-(tetrahydrofuran-3-yl)pyrimidin-4-yl)-1′,2′-dihydrospiro[cyclopropane-1,3′-pyrrolo[3,2-c]pyridin]-6′-yl)acetamide trifluoroacetate]
IC50 [1]: 100 to 1000 nM | IC50 [2]: ≤ 10 nM

CNCc1cc(N2CC3(CC3)c3cnc(NC(C)=O)cc32)nc(C(C)(F)F)n1 [Example 298, N-(1′-(2-(1,1-difluoroethyl)-6-((methylamino)methyl)pyrimidin-4-yl)-1′,2′-dihydrospiro[cyclopropane-1,3′-pyrrolo[3,2-c]pyridin]-6′-yl)acetamide]
IC50 [1]: ≥ 1000 nM | IC50 [2]: 10 to 100 nM
